Test results as given in PubChem BioAssay (NCI).
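These data come from cells grown in 96-well plates and exposed to compound for 48 hours at five concentrations. The concentration for 50% growth inhibition is given as GI50. At the TGI there is no net growth.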

What was measured:
Test in all cases: NCI-60 cell line screen, 48 h
SNB-75 CNS = test system: SNB-75 CNS
NCI-H522 lung = test system: NCI-H522 lung
HT29 colon = test system: HT29 colon
PC-3 prostate = test system: PC-3 prostate
IGROV1 ovarian = test system: IGROV1 ovarian
SNB-19 CNS = test system: SNB-19 CNS
HCC-2998 colon = test system: HCC-2998 colon
SF-268 CNS = test system: SF-268 CNS
HS 578T breast = test system: HS 578T breast
TK-10 renal = test system: TK-10 renal

Compound | TGI (SNB-75 CNS) [µM] | TGI (NCI-H522 lung) [µM] | TGI (HT29 colon) [µM] | TGI (PC-3 prostate) [µM] | TGI (IGROV1 ovarian) [µM] | TGI (SNB-19 CNS) [µM] | TGI (HCC-2998 colon) [µM] | TGI (SF-268 CNS) [µM] | TGI (HS 578T breast) [µM] | TGI (TK-10 renal) [µM] | GI50 (SNB-75 CNS) [µM] | GI50 (NCI-H522 lung) [µM] | GI50 (HT29 colon) [µM] | GI50 (PC-3 prostate) [µM] | GI50 (IGROV1 ovarian) [µM] | GI50 (SNB-19 CNS) [µM] | GI50 (HCC-2998 colon) [µM] | GI50 (SF-268 CNS) [µM] | GI50 (HS 578T breast) [µM] | GI50 (TK-10 renal) [µM]
C/C1=C\CC[C@@]2(C)O[C@@H]2C[C@@H](C2(C)CO2)CC/C(C)=C/CC1 (some centres not stated) | 93.7 | 52.6 | > 100 | 82.2 | > 100 | 41.3 | 39.2 | 33.9 | 46.3 | 32.5 | – | – | – | – | – | – | – | – | – | –
C(/C=C(\Nc1ccccc1)C12CC3CC(CC(C3)C1)C2)=Nc1ccccc1 | 46.4 | 24.3 | 27.6 | 33.1 | 36.5 | 33.9 | 33.2 | 41.1 | > 100 | 45.4 | – | – | – | – | – | – | – | – | – | –
Cc1cc2c([N+](=O)[O-])cc3c(c2o1)C(=O)C=CC3=O | > 61.5 | 3.32 | 4.67 | 30.7 | 26.6 | 30.9 | > 57.8 | 32.1 | 54.8 | 5.72 | – | – | – | – | – | – | – | – | – | –
COc1cc(-c2cc(=O)c3cc4c(=O)cc(-c5cc(OC)c(OC)c(OC)c5)oc4cc3o2)cc(OC)c1OC | 32.3 | > 85.8 | > 100 | > 100 | > 79.1 | 59.6 | > 100 | > 94.7 | 97.2 | 42.5 | – | – | – | – | – | – | – | – | – | –
Cc1cn(-c2cc(C(=O)Nc3cccc(-n4ccc5c(NC(=O)c6ccccc6)nccc54)c3)cc(C(F)(F)F)c2)cn1 | 3.27 | 8.21 | 1.04 | 15.6 | 23 | 25.5 | 4.79 | 7.89 | 1.73 | 5.27 | 0.252 | 0.375 | 0.29 | 0.393 | 0.6 | 0.579 | 0.862 | 0.514 | 0.252 | 0.855
N#CCc1nc(-c2ccccc2)n[nH]1 | > 100 | > 100 | > 100 | > 100 | > 100 | > 100 | > 100 | > 100 | > 100 | > 100 | – | – | – | – | – | – | – | – | – | –
NCCCN1CCN(CCCNc2ccc3nnn4c5ccccc5c(=O)c2c34)CC1 | 48.3 | 27.1 | 50.3 | 35.5 | 33.9 | 46.4 | 29.4 | 75 | 81.8 | > 100 | – | – | – | – | – | – | – | – | – | –
C[C@]12CC[C@@H]3c4ccc(O)cc4CC[C@H]3[C@@H]1C/C(=C\c1ccncc1)[C@@H]2O | 23.6 | 20.1 | > 100 | 76.2 | 28.7 | > 100 | 53 | 55.5 | 20.9 | > 100 | – | – | – | – | – | – | – | – | – | –
CCCCn1cnc2c(c(CC#N)nn2-c2ccccc2)c1=N | > 100 | > 100 | > 100 | > 100 | > 100 | > 100 | > 100 | > 100 | > 100 | > 100 | – | – | – | – | – | – | – | – | – | –
O=C(O)c1cc(-c2ccc3c(O)c(O)ccc3c2)ccc1O | > 75 | > 75 | 42.5 | > 75 | > 75 | > 75 | > 75 | > 75 | > 75 | > 75 | – | – | – | – | – | – | – | – | – | –
S=c1[nH]c2ccc(Br)cc2c(=S)s1 | 93 | 77.7 | > 100 | 49.8 | > 100 | > 100 | 63.7 | > 100 | > 100 | 84.5 | – | – | – | – | – | – | – | – | – | –
Cc1cc(-c2nc3ccccc3s2)ccc1NC(=O)[C@@H](N)CCCCN | 13 | 19.2 | 16.9 | 30.1 | 17.2 | 29.4 | 24.5 | 14.5 | 45.3 | 23.2 | – | – | – | – | – | – | – | – | – | –
CCc1c[n+]([O-])c(C)cc1[N+](=O)[O-] | > 100 | > 100 | > 100 | > 100 | > 100 | > 100 | 40.5 | > 100 | > 100 | > 100 | – | – | – | – | – | – | – | – | – | –
O=C(O)C(SC1=NNC2(C(=O)N1)c1ccccc1-c1ccccc12)SC1=NNC2(C(=O)N1)c1ccccc1-c1ccccc12 | > 10 | > 10 | > 10 | > 10 | > 10 | > 10 | > 10 | > 10 | > 10 | > 10 | – | – | – | – | – | – | – | – | – | –
Nc1nc(Cl)cc(NCC2(CO)CCC(CCc3ccccc3)C2)n1 (configuration not stated) | 39.4 | 25.6 | 21.4 | 43.4 | 37 | 31.3 | 33.8 | 35.6 | 52.7 | 48.9 | – | – | – | – | – | – | – | – | – | –
CC[n+]1[b-](C(C)(C)C)n(/N=C/C(C)(C)C)[b-](C(C)(C)C)[n+]1CC | > 100 | > 100 | > 100 | > 100 | > 100 | > 100 | > 100 | > 100 | > 100 | > 100 | – | – | – | – | – | – | – | – | – | –
O=C(CNc1c(Cl)cccc1Cl)NC1C=Cc2ccc(S(=O)(=O)Nc3c(Cl)cccc3Cl)cc2C1=O (configuration not stated) | > 100 | > 100 | > 100 | > 100 | > 100 | > 100 | > 100 | > 100 | > 100 | > 100 | – | – | – | – | – | – | – | – | – | –
Cc1ccc(OCCn2cc(Nc3ccccc3)c(=O)n(CCOc3ccc(C)cc3)c2=O)cc1 | > 100 | > 100 | > 100 | > 100 | > 100 | > 100 | > 100 | > 100 | > 100 | > 100 | – | – | – | – | – | – | – | – | – | –
Clc1ccc(CSCCc2ccncc2)cc1Cl | 77.6 | 33.8 | 31.2 | 45.4 | 52.2 | 35.6 | 34.2 | 49.5 | 53.8 | > 100 | – | – | – | – | – | – | – | – | – | –
Nc1ccc(-c2nc3ccccc3s2)cc1C(F)(F)F | 27.9 | 31.6 | 29.1 | 29.1 | 21.1 | 33.2 | 22.4 | 30.4 | 43.5 | 26 | – | – | – | – | 2.6 | – | 10.6 | – | – | –
COC(=O)CCc1cc(OC)c2c(c1)[C@H](C(=O)OC)[C@@H](c1ccc(O)c(OC)c1)O2 | > 100 | > 100 | > 100 | > 100 | > 100 | > 100 | 50.5 | > 100 | > 100 | > 100 | – | – | – | – | – | – | – | – | – | –
COC(=O)c1cc2c(cc1CC1Cc3cc4c(cc3C1)CCC4)CCC2 | > 100 | 80 | > 100 | > 100 | > 100 | > 100 | 70 | > 100 | > 100 | > 100 | – | – | – | – | – | – | – | – | – | –
O=c1ccn(C2OC(CO)C(P(=O)(O)O)C2O)c(=O)[nH]1 (configuration not stated) | > 100 | > 100 | > 100 | > 100 | > 100 | > 100 | > 100 | > 100 | > 100 | > 100 | – | – | – | – | – | – | – | – | – | –
NNC1=N/C(=C\c2ccco2)C(Cl)=N1 | > 100 | 92.2 | > 100 | > 100 | > 100 | > 100 | > 100 | > 100 | > 100 | > 100 | – | – | – | – | – | – | – | – | – | –
CC(C)=CCC/C(C)=C/COC(C)(C)C1=CCC(C)CC1 (configuration not stated) (tested in a mixture with another compound) | > 100 | > 100 | > 100 | > 100 | > 100 | > 100 | > 100 | > 100 | > 100 | > 100 | – | – | – | – | – | – | – | – | – | –
COC(=O)c1c2c(cc3c1CCC3)CCC2 | > 100 | > 100 | > 100 | > 100 | > 100 | > 100 | > 100 | > 100 | > 100 | > 100 | – | – | – | – | – | – | – | – | – | –
O=c1[nH]cnc2c1ncn2[C@@H]1C[C@@H]1CO | > 100 | > 100 | > 100 | > 100 | > 100 | > 100 | > 100 | > 100 | > 100 | > 100 | – | – | – | – | – | – | – | – | – | –
O=C(NC(COC(=O)C(Cc1ccccc1)NC(=O)c1ccccc1)Cc1ccccc1)c1ccccc1 (configuration not stated) | > 50 | > 50 | > 50 | > 50 | > 50 | > 50 | > 50 | > 50 | > 50 | > 50 | – | – | – | – | – | – | – | – | – | –
